Measurements from patent US20090298752A1, “APLIDINE TREATMENT OF CANCERS” (PHARMA MAR, S.A., priority 1999, published 2009).

Legend:
[1] = system: substance P positive sensory neurones; assay: fluorescent viability stain with immunocytochemistry; assay type: cell-based; conditions: ethidium homodimer and calcein AM
Excerpt: (§1) The motor neuron sensitivity may help to explain the type II muscle atrophy observed (as predicted) in a small group of patients where the AUC concentration of the drug is elevated due to diminished excretion.

[2] = system: brain cells (neurons and astrocytes); assay: as above; assay type: cell-based; conditions: ethidium homodimer and calcein AM
Excerpt: as §1

[3] = system: motor (choline acetyl transferatse positive) neurons in the spinal cord; assay: as above; assay type: cell-based; conditions: ethidium homodimer and calcein AM
Excerpt: as §1

[4] = Phase I, 24 h infusion every 2 weeks: toxicity and pharmacokinetics; assay type: in vivo, human
Experimental: Aplidine is given as a 24 hour infusion every 2 weeks. The starting dose was 200 μg/m^2/d and dose escalation proceed including so far 400, 800, 1600, and 3200 μg/m^2/d. A total of 18 patients (M/F: 7/11, median age 52, OMS 0/1:10/8) have been entered. […] Among evaluable patients, toxicity consisted of mild grade I-II nausea/vomiting, grade I-II asthenia, and cramping occurring during or immediately after the infusion. No neuromuscular toxicity were reported at the evaluated doses. One patient with an advanced lung cancer and documented tumour progression at the dose of 1600 μg/m^2 developed a haemolytic anaemia and thrombocytopenia that was considered unlikely related to the study drug. […] An open 2-compartment model fits appropriately most plasma concentration profiles. […] The accrual is ongoing to determine the dose limiting toxicity and the dose to be recommended in phase II studies.
Aplidine was given to patients with solid tumour/NHL as a 24 hr infusion/q2w to 35 patients (median: age=51/ECOG=1) with solid tumour (32 pts) or NHL (3 pts). 23/35 patients were previously exposed to ≧3 previous lines of chemotherapy. Nine dose levels (200-7000 μg/m^2/w/q2w) and 65 cycles (120 infusions) were given. […] Toxicity consisted of G2-3 asthenia and emesis in 9-2 patients and 12-1 pts, respectively. G3 nausea/vomiting (≧5000 μg/m^2) was efficiently treated then prevented with 4HT3-regimens. […] At the dose of 5000 μg/m^2/w/q2w, 2 patients experienced transient muscle cramps with reversible G3 CPK-MM elevations. Among 9 patients treated at 6000 μg/m^2/w, 3 patients experienced an increase of CPK-MM and aldolase after the 3rd injection of aplidine. CPK elevations were G1-2 and not symptomatic in 2 patients but a G3 CPK elevation with G3 muscular pain and loss of muscle strength (DLT) was reported in 1 pt. This was reversible with no sequel. […] Ultrastructural electron microscopy indicated no morphological mitochondria alteration but a lost of the thick myosin filaments. At 7000 μg/m^2/q2w, 4 patients have been entered. […] Mechanistic hypothesis and preventive strategies against muscle toxicity are under evaluation.

human bladder cancer = human bladder cancer animal models; assay type: in vivo; conditions: complete remissions in some animal models
Excerpt: Bladder tumours are one type of tumour over-expressing the receptor to Epithelial Growth Factor (EGF), which leads to upregulation of VEGF and the VEGF receptor. Binding of VEGF to its receptor is believed to lead to cell growth stimulation by means of transitory local calcium ion changes among other mechanisms for signalling. A compound inhibiting VEGF action is expected to be inhibitory to such tumours.

[5] = 6000 μg/m^2/w, among 9 patients
[6] = 6000 mcg/m^2/2 wks, 12 patients

Q: For aplidine, which “toxicity at approximately 1 μM” value [1] is on record?
A: Its value is “but not substance P positive sensory neurones”.

Q: What about the toxic concentration [2] of the same substance?
A: The toxic concentration was “approximately 1 μM”.

Q: What about the toxic concentration [3] of the same substance?
A: The toxic concentration was “approximately 1 μM”.

Q: What about the “transient muscle cramps with reversible G3 CPK-MM elevations” value ([4]; 5000 μg/m^2/w/q2w) of the same substance?
A: The value was 2 patients.

Q: And the “G3 CPK elevation with G3 muscular pain and loss of muscle strength (DLT)” value [4, 5]?
A: Its value is 1 pt.

Q: What about the “increase of CPK-MM and aldolase after the 3rd injection” value [4, 5] of the same substance?
A: The value was 3 patients.

Q: What about the “initial phase median half-life” value ([4]; 2-compartment model, preliminary) of the same substance?
A: Its value is 0.64 h.

Q: And the “terminal phase median half-life” value ([4]; 2-compartment model, preliminary, 24 h infusion)?
A: Its value is 25.8 h.

Q: What about the “Nausea/vomiting G2 (worst toxicity per patient)” value ([4]; 200 mcg/m^2/2 wks, 3 patients) of the same substance?
A: The value was 2.

Q: What about the “Transaminitis G2 (worst toxicity per patient)” value ([4]; 200 mcg/m^2/2 wks, 3 patients) of the same substance?
A: The value was 1.

Q: And the “Asthenia G2 (worst toxicity per patient)” value ([4]; 400 mcg/m^2/2 wks, 3 patients)?
A: Its value is 2.

Q: And the “Hypertension G2 (worst toxicity per patient)” value ([4]; 400 mcg/m^2/2 wks, 3 patients)?
A: The value was 1.

Q: What about the “Nausea/vomiting G2 (worst toxicity per patient)” value ([4]; 400 mcg/m^2/2 wks, 3 patients) of the same substance?
A: The value was 1.

Q: What about the “Flushing G1 (worst toxicity per patient)” value ([4]; 800 mcg/m^2/2 wks, 3 patients) of the same substance?
A: The value was 1.

Q: What about the “Muscle cramps G1 + G2 (worst toxicity per patient)” value ([4]; 800 mcg/m^2/2 wks, 3 patients) of the same substance?
A: Its value is 2.

Q: And the “Asthenia G2 (worst toxicity per patient)” value ([4]; 1600 mcg/m^2/2 wks, 6 patients)?
A: Its value is 2.

Q: What about the “Asthenia G3 (worst toxicity per patient)” value ([4]; 1600 mcg/m^2/2 wks, 6 patients) of the same substance?
A: The value was 1.

Q: And the “Muscle cramps G1 + G2 (worst toxicity per patient)” value ([4]; 1600 mcg/m^2/2 wks, 6 patients)?
A: Its value is 1.

Q: What about the “Nausea/vomiting G2 (worst toxicity per patient)” value ([4]; 1600 mcg/m^2/2 wks, 6 patients) of the same substance?
A: Its value is 4.

Q: What about the “Transaminitis G3 (worst toxicity per patient)” value ([4]; 1600 mcg/m^2/2 wks, 6 patients) of the same substance?
A: The value was “(1)”.

Q: And the “Asthenia G2 (worst toxicity per patient)” value ([4]; 3200 mcg/m^2/2 wks, 3 patients)?
A: The value was 1.

Q: And the “Flushing G1 (worst toxicity per patient)” value ([4]; 3200 mcg/m^2/2 wks, 3 patients)?
A: The value was 1.

Q: And the “Muscle cramps G1 + G2 (worst toxicity per patient)” value ([4]; 3200 mcg/m^2/2 wks, 3 patients)?
A: Its value is 2.

Q: What about the “Muscle pain G2 (worst toxicity per patient)” value ([4]; 3200 mcg/m^2/2 wks, 3 patients) of the same substance?
A: Its value is “(1)”.

Q: And the “Nausea/vomiting G3 (worst toxicity per patient)” value ([4]; 3200 mcg/m^2/2 wks, 3 patients)?
A: The value was “(1)”.

Q: What about the “Asthenia G2 (worst toxicity per patient)” value ([4]; 4000 mcg/m^2/2 wks, 3 patients) of the same substance?
A: Its value is 1.

Q: And the “Flushing G1 (worst toxicity per patient)” value ([4]; 4000 mcg/m^2/2 wks, 3 patients)?
A: The value was 1.

Q: And the “Muscle cramps G1 + G2 (worst toxicity per patient)” value ([4]; 4000 mcg/m^2/2 wks, 3 patients)?
A: The value was 2.

Q: And the “Muscle pain G1 (worst toxicity per patient)” value ([4]; 4000 mcg/m^2/2 wks, 3 patients)?
A: Its value is 2.

Q: What about the “Nausea/vomiting G2 (worst toxicity per patient)” value ([4]; 4000 mcg/m^2/2 wks, 3 patients) of the same substance?
A: Its value is 2.

Q: And the “Pain central catheter G2 (worst toxicity per patient)” value ([4]; 4000 mcg/m^2/2 wks, 3 patients)?
A: Its value is 2.

Q: And the “Asthenia G3 (worst toxicity per patient)” value ([4]; 5000 mcg/m^2/2 wks, 3 patients)?
A: The value was “(1)”.

Q: What about the “CPK elevation G3 (worst toxicity per patient)” value ([4]; 5000 mcg/m^2/2 wks, 3 patients) of the same substance?
A: Its value is “(1)[1]”.

Q: And the “CPK elevation G4 (worst toxicity per patient)” value ([4]; 5000 mcg/m^2/2 wks, 3 patients)?
A: The value was “(1)[1]”.

Q: What about the “Muscle cramps G1 + G2 (worst toxicity per patient)” value ([4]; 5000 mcg/m^2/2 wks, 3 patients) of the same substance?
A: The value was 2.

Q: And the “Muscle pain G1 (worst toxicity per patient)” value ([4]; 5000 mcg/m^2/2 wks, 3 patients)?
A: The value was 1.

Q: What about the “Muscle weakness G1 (worst toxicity per patient)” value ([4]; 5000 mcg/m^2/2 wks, 3 patients) of the same substance?
A: Its value is 1.

Q: And the “Nausea/vomiting G2 (worst toxicity per patient)” value ([4]; 5000 mcg/m^2/2 wks, 3 patients)?
A: Its value is 1.

Q: And the “Transaminitis G2 (worst toxicity per patient)” value ([4]; 5000 mcg/m^2/2 wks, 3 patients)?
A: Its value is 1.

Q: And the “Asthenia G2 (worst toxicity per patient)” value [4, 6]?
A: The value was 6.

Q: What about the “CPK elevation G2 (worst toxicity per patient)” value [4, 6] of the same substance?
A: The value was 1(1).

Q: What about the “CPK elevation G3 (worst toxicity per patient)” value [4, 6] of the same substance?
A: The value was 1(1).

Q: And the “Muscle cramps G1 + G2 (worst toxicity per patient)” value [4, 6]?
A: The value was 1.

Q: And the “Muscle pain G1 (worst toxicity per patient)” value [4, 6]?
A: Its value is 1.

Q: And the “Muscle pain G2 (worst toxicity per patient)” value [4, 6]?
A: The value was 2.

Q: What about the “Muscle weakness G1 (worst toxicity per patient)” value [4, 6] of the same substance?
A: Its value is 1(1).

Q: What about the “Muscle weakness G2 (worst toxicity per patient)” value [4, 6] of the same substance?
A: The value was 1(1).

Q: And the “Nausea/vomiting G2 (worst toxicity per patient)” value [4, 6]?
A: Its value is 2.

Q: And the “Asthenia G2 (worst toxicity per patient)” value ([4]; 7000 mcg/m^2/2 wks, 7 patients)?
A: The value was 2.

Q: And the “CPK elevation G2 (worst toxicity per patient)” value ([4]; 7000 mcg/m^2/2 wks, 7 patients)?
A: Its value is 1.

Q: What about the “Flushing G1 (worst toxicity per patient)” value ([4]; 7000 mcg/m^2/2 wks, 7 patients) of the same substance?
A: Its value is 1.

Q: And the “Muscle pain G1 (worst toxicity per patient)” value ([4]; 7000 mcg/m^2/2 wks, 7 patients)?
A: The value was 1.

Q: And the “Nausea/vomiting G2 (worst toxicity per patient)” value ([4]; 7000 mcg/m^2/2 wks, 7 patients)?
A: Its value is 1.

Q: And the “Neutrophenia G4 (worst toxicity per patient)” value ([4]; 7000 mcg/m^2/2 wks, 7 patients)?
A: Its value is 1.

Q: And the “Transaminitis G2 (worst toxicity per patient)” value ([4]; 7000 mcg/m^2/2 wks, 7 patients)?
A: The value was 1.

Q: What about the terminal half-life ([4]; Example 6) of the same substance?
A: Its terminal half-life is 10 to 24 h.

Q: And the dose limiting toxicity ([4]; Example 6: 18 patients, 200-3200 μg/m^2/d)?
A: Its dose limiting toxicity is “no dose limiting toxicity”.

Q: What about the clearance ([4]; Example 14) of the same substance?
A: The clearance was 332 ml/mm.m^2.

Q: What about the terminal half life ([4]; Example 14) of the same substance?
A: The terminal half life was 15 to 35 h.

Q: And the “G2 asthenia, patients” value ([4]; Example 14, 35 patients)?
A: The value was 9 patients.

Q: And the “G2 emesis, patients” value ([4]; Example 14, 35 patients)?
A: The value was 12 pts.

Q: And the “G3 asthenia, patients” value ([4]; Example 14, 35 patients)?
A: Its value is 2 patients.

Q: And the “G3 emesis, patients” value ([4]; Example 14, 35 patients)?
A: Its value is 1 pts.

Q: And the cardiac toxicity ([4]; Example 14, 35 patients)?
A: The cardiac toxicity was “No cardiac toxicity”.

Q: What about the haematologic toxicity ([4]; Example 14, 35 patients) of the same substance?
A: Its haematologic toxicity is “No haematiologic toxicity”.

Q: What about the “coefficient of variation of CL” value ([4]; Example 18, interpatient) of the same substance?
A: The value was 62%.

Q: What about the “t ½” value ([4]; Example 18, median, quartiles 15.7-35.0) of the same substance?
A: The value was 23.8 h.

Q: And the “plasma CL” value ([4]; Example 18, median, quartiles 192-415)?
A: Its value is 252 mL/min/m^2.

Q: What about the Vss ([4]; Example 18, median, quartiles 274-638) of the same substance?
A: The Vss was 413 L/m^2.

Q: And the “Plasma concentrations 24 h after the end of infusion, comparable to efficient in vitro concentrations” value ([4]; doses ≧3000 μg/m^2/q2w)?
A: The value was less than 1 ng/mL.

Q: And the “activity on human bladder cancer” value (human bladder cancer)?
A: The value was “exceedingly high activity”.
